Test results published in PubChem BioAssay (NCI).
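Five concentrations, 48 hours, 96-well plates. GI50 marks 50% less growth. Definition used: TGI = concentration required for complete inhibition of growth.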

What was measured:
Assay in all cases: DTP human tumour cell line panel, 48 h
[1] = test system: HOP-18 NSCLC
[2] = test system: MALME-3M melanoma
[3] = test system: LOX IMVI melanoma
[4] = test system: RXF-631 renal
[5] = test system: EKVX NSCLC
[6] = test system: A549 NSCLC
[7] = test system: A498 renal
[8] = test system: M14 melanoma
[9] = test system: SK-MEL-5 melanoma
[10] = test system: K-562 leukemia
[11] = test system: COLO 205 colon
[12] = test system: RPMI-8226 leukemia
[13] = test system: HOP-92 NSCLC
[14] = test system: SR leukemia
[15] = test system: SF-295 CNS
[16] = test system: OVCAR-4 ovarian
[17] = test system: DMS 273 small cell lung
[18] = test system: HCT-15 colon
[19] = test system: SNB-78 CNS
[20] = test system: MOLT-4 leukemia
[21] = test system: CAKI-1 renal
[22] = test system: HCT-116 colon
[23] = test system: M19-MEL melanoma
[24] = test system: NCI-H226 lung
[25] = test system: IGROV1 ovarian
[26] = test system: UACC-257 melanoma
[27] = test system: KM12 colon
[28] = test system: SNB-19 CNS
[29] = test system: HL-60(TB) leukemia
[30] = test system: SF-268 CNS
[31] = test system: SK-MEL-28 melanoma
[32] = test system: UO-31 renal
[33] = test system: HCC-2998 colon
[34] = test system: KM20L2 colon
[35] = test system: NCI-H460 lung
[36] = test system: U251 CNS
[37] = test system: SF-539 CNS
[38] = test system: NCI-H522 lung
[39] = test system: HOP-62 NSCLC
[40] = test system: LXFL 529 NSCLC
[41] = test system: SK-MEL-2 melanoma
[42] = test system: OVCAR-3 ovarian
[43] = test system: SK-OV-3 ovarian
[44] = test system: XF 498 CNS
[45] = test system: CCRF-CEM leukemia
[46] = test system: RXF 393 renal
[47] = test system: ACHN renal
[48] = test system: TK-10 renal
[49] = test system: OVCAR-8 ovarian
[50] = test system: NCI-H23 lung
[51] = test system: SN12C renal
[52] = test system: OVCAR-5 ovarian
[53] = test system: UACC-62 melanoma
[54] = test system: DLD-1 colon
[55] = test system: DMS 114 small cell lung
[56] = test system: HT29 colon
[57] = test system: SNB-75 CNS
[58] = test system: 786-0 renal
[59] = test system: SW-620 colon

## CCO/C=C/C(C)C1(C(=O)OCC)CCCCC1=O (stereo not drawn)
[1]
  TGI: > 100 µM
[2]
  TGI: > 100 µM
[3]
  TGI: > 100 µM
[4]
  TGI: > 100 µM
[5]
  TGI: > 100 µM
[6]
  TGI: > 100 µM
[7]
  TGI: > 100 µM
[8]
  TGI: > 100 µM
[9]
  TGI: > 100 µM
[10]
  TGI: > 100 µM
[11]
  TGI: > 100 µM
[12]
  TGI: > 100 µM
[13]
  TGI: > 100 µM
[14]
  TGI: > 100 µM
[15]
  TGI: > 100 µM
[16]
  TGI: > 100 µM
[17]
  TGI: 47 µM
[18]
  TGI: > 100 µM
[19]
  TGI: > 100 µM
[20]
  TGI: > 100 µM
[21]
  TGI: > 100 µM
[22]
  TGI: > 100 µM
[23]
  TGI: > 100 µM
[24]
  TGI: > 100 µM
[25]
  TGI: > 100 µM
[26]
  TGI: > 100 µM
[27]
  TGI: > 100 µM
[28]
  TGI: > 100 µM
[29]
  TGI: > 100 µM
[30]
  TGI: > 100 µM
[31]
  TGI: > 100 µM
[32]
  TGI: > 100 µM
[33]
  TGI: > 100 µM
[34]
  TGI: > 100 µM
[35]
  TGI: > 100 µM
[36]
  TGI: > 100 µM
[37]
  TGI: > 100 µM
[38]
  TGI: > 100 µM
[39]
  TGI: > 100 µM
[40]
  TGI: > 100 µM
[41]
  TGI: > 100 µM
[42]
  TGI: > 100 µM
[43]
  TGI: > 100 µM
[44]
  TGI: > 100 µM
[45]
  TGI: > 100 µM
[46]
  TGI: > 100 µM
[47]
  TGI: > 100 µM
[48]
  TGI: > 100 µM
[49]
  TGI: > 100 µM
[50]
  TGI: > 100 µM
[51]
  TGI: > 100 µM
[52]
  TGI: > 100 µM
[53]
  TGI: > 100 µM
[54]
  TGI: > 100 µM
[55]
  TGI: > 100 µM
[56]
  TGI: > 100 µM
[57]
  TGI: > 100 µM
[58]
  TGI: > 100 µM

## CN(C)c1ccc([O-])cc1.CN(C)c1ccc([O-])cc1.CN(C)c1ccc([O-])cc1.CN(C)c1ccc([O-])cc1.[Ti+4]
[1]
  GI50: > 100 µM
  TGI: > 100 µM
[2]
  GI50: > 100 µM
  TGI: > 100 µM
[3]
  GI50: 76.9 µM
  TGI: > 100 µM
[4]
  GI50: > 100 µM
  TGI: > 100 µM
[5]
  GI50: > 100 µM
  TGI: > 100 µM
[6]
  GI50: 51.9 µM
  TGI: > 100 µM
[7]
  GI50: 19.4 µM
  TGI: > 100 µM
[8]
  GI50: > 100 µM
  TGI: > 100 µM
[9]
  GI50: 51.5 µM
  TGI: > 100 µM
[10]
  GI50: 37.9 µM
  TGI: > 100 µM
[11]
  GI50: 85.3 µM
  TGI: > 100 µM
[12]
  GI50: 30.9 µM
  TGI: > 100 µM
[15]
  GI50: > 100 µM
  TGI: > 100 µM
[16]
  GI50: 75.3 µM
  TGI: > 100 µM
[17]
  GI50: 34.3 µM
  TGI: > 100 µM
[18]
  GI50: > 100 µM
  TGI: > 100 µM
[19]
  GI50: > 100 µM
  TGI: > 100 µM
[20]
  GI50: 38.1 µM
  TGI: > 100 µM
[21]
  GI50: > 100 µM
  TGI: > 100 µM
[22]
  GI50: > 100 µM
  TGI: > 100 µM
[23]
  GI50: > 100 µM
  TGI: > 100 µM
[24]
  GI50: > 100 µM
  TGI: > 100 µM
[25]
  GI50: > 100 µM
  TGI: > 100 µM
[26]
  GI50: > 100 µM
  TGI: > 100 µM
[27]
  GI50: 55 µM
  TGI: > 100 µM
[28]
  GI50: > 100 µM
  TGI: > 100 µM
[29]
  GI50: 27.5 µM
  TGI: > 100 µM
[30]
  GI50: > 100 µM
  TGI: > 100 µM
[31]
  GI50: > 100 µM
  TGI: > 100 µM
[32]
  GI50: > 100 µM
  TGI: > 100 µM
[34]
  GI50: > 100 µM
  TGI: > 100 µM
[35]
  GI50: 37.4 µM
  TGI: > 100 µM
[37]
  GI50: > 100 µM
  TGI: > 100 µM
[38]
  GI50: 33.2 µM
  TGI: 98.2 µM
[39]
  GI50: > 100 µM
  TGI: > 100 µM
[40]
  GI50: 25.9 µM
  TGI: > 100 µM
[41]
  GI50: > 100 µM
  TGI: > 100 µM
[42]
  GI50: > 100 µM
  TGI: > 100 µM
[43]
  GI50: > 100 µM
  TGI: > 100 µM
[44]
  GI50: > 100 µM
  TGI: > 100 µM
[45]
  GI50: 43.7 µM
  TGI: > 100 µM
[46]
  GI50: 59 µM
  TGI: > 100 µM
[47]
  GI50: 56.3 µM
  TGI: > 100 µM
[59]
  GI50: 69.9 µM
  TGI: > 100 µM
[48]
  GI50: > 100 µM
  TGI: > 100 µM
[49]
  GI50: 73.7 µM
  TGI: > 100 µM
[50]
  GI50: > 100 µM
  TGI: > 100 µM
[51]
  GI50: > 100 µM
  TGI: > 100 µM
[52]
  GI50: > 100 µM
  TGI: > 100 µM
[53]
  GI50: > 100 µM
  TGI: > 100 µM
[54]
  GI50: 91 µM
  TGI: > 100 µM
[55]
  GI50: 50.7 µM
  TGI: > 100 µM
[56]
  GI50: > 100 µM
  TGI: > 100 µM
[57]
  GI50: 27.2 µM
  TGI: > 100 µM
[58]
  GI50: > 100 µM
  TGI: > 100 µM
